# Results taken from patent publication US6114390A, “Amino acid derivatives, pharmaceutical compositions containing these compounds and processes for preparing them” (Karl Thomae GmbH, priority 1997, dated 2000).
# Key:
# [1] = biological target: T1, humanY2 (Homo sapiens, UniProt P49146); assay: Receptor binding, SMS-KAN cells (Y2); settings: read-out: Affinity IC50, humanY2/SMS-KAN
# T1 construct: endoge- nously expressing Y1 and Y2 receptors; endogenous in cells; host or cells: SMS-KAN (neuroblastoma) cells
# T1 sequence (P49146 1-381): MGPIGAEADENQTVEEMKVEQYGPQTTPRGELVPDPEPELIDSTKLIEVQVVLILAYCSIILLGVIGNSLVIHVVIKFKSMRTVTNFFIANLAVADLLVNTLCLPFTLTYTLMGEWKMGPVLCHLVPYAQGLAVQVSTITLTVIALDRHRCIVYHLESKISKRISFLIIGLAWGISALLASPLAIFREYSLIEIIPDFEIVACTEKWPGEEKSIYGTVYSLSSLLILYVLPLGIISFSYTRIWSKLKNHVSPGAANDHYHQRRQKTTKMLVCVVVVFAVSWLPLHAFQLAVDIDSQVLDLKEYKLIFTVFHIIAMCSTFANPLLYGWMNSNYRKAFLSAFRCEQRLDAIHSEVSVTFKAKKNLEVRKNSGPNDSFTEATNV
# Experimental: SMS-KAN (neuroblastoma) cells: Cells were grown and receptor binding assay performed analogously as described hereinbefore under A and by Wieland et al. in Peptides 16, 1389-1394 (1995).
# [2] = biological target: T2, rat Y4 receptor (Rattus norvegicus, UniProt Q63447); assay: Receptor binding, BHK cells stably transfected with rat Y4 receptor; settings: read-out: Affinity IC50, ratY4/BHK
# T2 construct: expressed in transfected cells; host or cells: BHK
# Experimental: BHK cells stably transfected with rat Y4 receptor: Cultivation and receptor binding was performed as described for hY1/BHK with exception of incubation medium (25 mM HEPES, 2.5 mM CaCl2, 1.0 mM MgCl2, pH 7.4) and final concentration of cell suspension 5×10^5 cells/ml. 24 h before receptor binding assay 1.0 mM IPTG was added for induction of expression. Incubation time for binding assay: 2 h.
# [3] = biological target: T3, human Y5 receptor (Homo sapiens, UniProt Q15761); assay: Receptor binding, HEK 293 cells stably transfected with human Y5 receptor; settings: read-out: Affinity IC50, humanY5/293
# T3 construct: expressed in transfected cells; host or cells: HEK 293
# T3 sequence (Q15761 1-445): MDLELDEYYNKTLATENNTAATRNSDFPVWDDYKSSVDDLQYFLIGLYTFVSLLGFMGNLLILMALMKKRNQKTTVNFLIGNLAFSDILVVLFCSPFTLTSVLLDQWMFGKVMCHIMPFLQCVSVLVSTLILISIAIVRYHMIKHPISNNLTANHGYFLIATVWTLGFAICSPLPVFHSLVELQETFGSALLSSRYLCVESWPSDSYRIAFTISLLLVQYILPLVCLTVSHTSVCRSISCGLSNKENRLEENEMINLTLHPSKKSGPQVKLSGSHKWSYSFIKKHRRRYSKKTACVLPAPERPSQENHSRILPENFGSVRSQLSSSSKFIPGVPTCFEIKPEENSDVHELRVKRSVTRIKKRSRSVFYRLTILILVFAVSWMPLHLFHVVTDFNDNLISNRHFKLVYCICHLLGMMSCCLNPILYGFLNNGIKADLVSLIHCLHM
# Experimental: HEK 293 cells stably transfected with human Y5 receptor:
# Centrifugated cells were cultivated as described for BHK/Y1 cells except that a concentration of 0.7 mg/ml G-418 was used, no hygromycin added and no IPTG induction was necessary. The incubation buffer, cell cultivation and receptor binding was performed as described. Final concentration was 1.5×10^6 cells/ml and centrifugation stopped as described for Y1/BHK cells.
# [4] = biological target: T4, rat Y5 receptor (Rattus norvegicus, UniProt Q63634); assay: Receptor binding, CHO cells transiently transfected with rat Y5 receptor; settings: means ± S.E.M. of 3 to 5 experiments, read-out: Affinity IC50, ratY5/CHO
# T4 construct: expressed in transfected cells; host or cells: CHO
# T4 sequence (Q63634 1-445): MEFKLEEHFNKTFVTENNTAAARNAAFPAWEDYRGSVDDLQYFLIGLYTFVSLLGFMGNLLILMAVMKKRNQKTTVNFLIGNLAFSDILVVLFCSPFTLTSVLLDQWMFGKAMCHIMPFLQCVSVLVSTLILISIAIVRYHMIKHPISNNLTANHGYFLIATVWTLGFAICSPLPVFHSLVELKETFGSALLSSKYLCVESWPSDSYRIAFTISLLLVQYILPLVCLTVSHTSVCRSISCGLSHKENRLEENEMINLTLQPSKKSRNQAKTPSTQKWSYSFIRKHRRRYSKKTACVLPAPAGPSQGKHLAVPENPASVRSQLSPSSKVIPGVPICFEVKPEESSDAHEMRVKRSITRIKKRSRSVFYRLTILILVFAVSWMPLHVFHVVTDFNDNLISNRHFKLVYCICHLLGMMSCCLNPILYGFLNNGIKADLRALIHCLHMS
# Experimental: CHO cells transiently transfected with human Y4 and rat Y5 receptor: Transfection was performed using the lipofectamine method according to the manufacturer's protocol (GIBCO BRL Eggenstein, Germany) using expression plasmids encoding the rat Y5 or human Y4 receptor, respectively. Receptor binding was performed as described for rat Y1 expressing HEK 293 cells.
# [5] = test system: NPY; assay: In vivo NPY-antagonism, NPY-induced blood pressure effects in pithed rats; settings: Rattus norvegicus, iv, 1 min, NPY 10 μg/kg i.v., diastolic blood pressure, read-out: pIC50 (in vivo NPY-antagonism) (converted)
# Experimental: After intubation of the trachea the animals are pithed by introducing a blunt needle through the eye into the spinal bone marrow channel. The animals are ventilated with oxygen-rich ambient air using a respiratory pump (20 strokes/minute). A cannula is inserted in the left carotid artery and the arterial blood pressure is measured using a pressure gauge (Braun Melsungen Combitrans) connected to a recording device. For injection purposes a catheter is placed in the left jugular vein through which heparin is administered (200 IU/kg, i.v.). After the blood pressure has been stabilised, the animals are given 2 bolus injections of NPY (10 μg/kg, i.v.) at intervals of 15 minutes. The average increase in diastolic blood pressure is taken as the reference value (=100%). The test substances are injected in increasing doses (4 to 6 doses) at intervals of 15 minutes. One minute after administration of the test substance, NPY is administered.
# The antagonistic effect of the test substances is determined by plotting the percentage inhibition of the NPY-induced blood pressure effects against the logarithm of the concentration of active substance.
# T2 sequence (Q63447 whole entry): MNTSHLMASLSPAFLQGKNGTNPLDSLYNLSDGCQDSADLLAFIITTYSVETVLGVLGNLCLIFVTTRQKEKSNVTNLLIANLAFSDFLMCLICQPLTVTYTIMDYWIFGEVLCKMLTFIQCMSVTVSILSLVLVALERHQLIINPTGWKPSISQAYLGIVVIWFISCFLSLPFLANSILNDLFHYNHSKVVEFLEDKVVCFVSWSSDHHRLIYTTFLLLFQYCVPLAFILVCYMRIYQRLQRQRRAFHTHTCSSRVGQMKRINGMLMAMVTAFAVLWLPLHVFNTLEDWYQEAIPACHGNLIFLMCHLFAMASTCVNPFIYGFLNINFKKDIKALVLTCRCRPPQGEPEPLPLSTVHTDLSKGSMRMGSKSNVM
smiles,measurement,setting,value
N=C(N)NCCC[C@@H](NC(=O)C(c1ccccc1)c1ccccc1)C(=O)NCc1ccc(CNC(N)=O)cc1 [Compound C],IC50,[1],> 10 µM
same,IC50,[2],> 10 µM
same,IC50,[3],> 10 µM
same,IC50,[4],21 µM
same,ED50,[5],0.00776 µmol/kg
